Results taken from ChEMBL document CHEMBL4017545, “Small Molecule Antagonists of the Interaction between the Histone Deacetylase 6 Zinc-Finger Domain and Ubiquitin” (J Med Chem, 2017).

Key:
[1] = molecular target: T1, Protein deacetylase HDAC6 (Homo sapiens, UniProt Q9UBN7); test: Displacement of FITC-labeled RLRGG peptide from N-terminal His6-tagged HDAC6 zinc-finger ubiquitin binding domain (1109 to 1215 residues)(unknown origin) expressed in Escherichia coli BL21(DE3) after 10 mins by fluorescence polarization assay
T1 sequence (Q9UBN7 whole entry): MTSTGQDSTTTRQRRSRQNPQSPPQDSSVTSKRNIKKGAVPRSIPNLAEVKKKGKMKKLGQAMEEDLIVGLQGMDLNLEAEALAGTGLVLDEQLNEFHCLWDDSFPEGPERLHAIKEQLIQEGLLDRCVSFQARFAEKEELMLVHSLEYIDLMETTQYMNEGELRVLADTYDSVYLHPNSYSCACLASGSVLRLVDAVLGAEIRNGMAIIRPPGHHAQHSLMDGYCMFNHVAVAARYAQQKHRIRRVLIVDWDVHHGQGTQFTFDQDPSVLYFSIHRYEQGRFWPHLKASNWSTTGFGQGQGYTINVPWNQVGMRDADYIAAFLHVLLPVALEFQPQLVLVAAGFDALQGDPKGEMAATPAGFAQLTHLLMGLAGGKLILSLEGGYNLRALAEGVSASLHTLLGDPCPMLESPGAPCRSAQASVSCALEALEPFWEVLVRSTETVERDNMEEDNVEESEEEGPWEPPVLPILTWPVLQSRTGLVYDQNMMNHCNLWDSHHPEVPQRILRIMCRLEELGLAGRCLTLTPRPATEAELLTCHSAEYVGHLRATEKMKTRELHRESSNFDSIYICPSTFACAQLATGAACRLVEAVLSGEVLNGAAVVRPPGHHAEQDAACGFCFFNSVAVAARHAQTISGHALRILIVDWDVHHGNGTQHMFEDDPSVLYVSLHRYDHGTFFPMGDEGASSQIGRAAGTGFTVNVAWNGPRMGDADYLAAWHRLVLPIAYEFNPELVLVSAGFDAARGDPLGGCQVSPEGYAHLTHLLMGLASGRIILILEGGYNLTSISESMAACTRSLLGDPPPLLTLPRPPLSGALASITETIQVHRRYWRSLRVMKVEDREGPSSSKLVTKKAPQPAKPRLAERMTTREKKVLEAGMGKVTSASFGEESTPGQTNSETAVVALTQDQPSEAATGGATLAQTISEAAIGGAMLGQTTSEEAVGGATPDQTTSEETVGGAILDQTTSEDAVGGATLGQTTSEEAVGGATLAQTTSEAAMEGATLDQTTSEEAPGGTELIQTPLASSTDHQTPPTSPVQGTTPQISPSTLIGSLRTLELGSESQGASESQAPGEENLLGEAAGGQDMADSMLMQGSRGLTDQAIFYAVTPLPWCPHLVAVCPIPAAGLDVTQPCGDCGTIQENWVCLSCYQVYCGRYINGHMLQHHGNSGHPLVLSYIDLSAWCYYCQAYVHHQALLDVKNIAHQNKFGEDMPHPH

[2] = molecular target: T1, Protein deacetylase HDAC6; test: Binding affinity to N-terminal Avi-tagged/C-terminal His6-tagged HDAC6 zinc-finger ubiquitin binding domain (1109 to 1215 residues)(unknown origin) expressed in Escherichia coli BL21(DE3) after 30 secs by SPR assay
[3] = molecular target: T1, Protein deacetylase HDAC6; test: Binding affinity to N-terminal His6-tagged HDAC6 zinc-finger ubiquitin binding domain (1109 to 1215 residues)(unknown origin) expressed in Escherichia coli BL21(DE3) by isothermal titration calorimetry

Row | Structure (SMILES) | IC50 [1] | IC50 ([1]; read-out: IC50) [µM] | further results
1 | O=C(O)CCc1nc2ccccc2nc1OCc1ccccc1 | Not Active |  | 
2 | Cc1n[nH]c(=O)nc1Nc1ccc(C(C)C)cc1 | Not Active |  | Kd [2]: Not Active; Kd [3]: Not Active
3 | O=C(O)CCc1nc2ccccc2nc1OCCOc1ccccn1 |  | 110 | 
4 | Cn1c(=O)c(CCC(=O)O)nc2ccccc21 |  | 70 | 
5 | O=C(O)CCc1nc2cc(Cl)ccc2s1 |  | 55 | Kd ([2]; read-out: Kd): 60 µM; Kd ([3]; read-out: Kd): 40 µM
6 | Cn1ccnc1COc1nc2ccccc2nc1CCC(=O)O |  | 140 | 
7 | Cc1cccc(OCCOc2nc3ccccc3nc2CCC(=O)O)c1 |  | 180 | 
8 | O=C(O)CCn1nc(-c2cccnc2)ccc1=O |  | 350 | Kd ([2]; read-out: Kd): 220 µM; Kd ([3]; read-out: Kd): 210 µM
9 | O=C(O)CCc1nc2ccccc2nc1OCc1cccs1 | Not Active |  | 
10 | O=C(O)CCc1nc2ccccc2nc1OCc1ccccn1 |  | 270 | 
11 | CCC(=O)Nc1nc(C)cs1 | Not Active |  | Kd [2]: Not Active; Kd [3]: Not Active
12 | O=C(O)CCc1nc2ccccc2nc1Sc1ccccc1 |  | 60 | 
